ChEMBL document CHEMBL1140694, “Identification of new functional inhibitors of acid sphingomyelinase using a structure-property-activity relation model” (J Med Chem, 2008)

Tests used:
[1] = physchem
Description: Dissociation constant, pKa of the compound

[2] = Partition coefficient, log P of the compound; assay type: physicochemical; details: octanol/water

SMILES | pKa [1] | logP ([2]; read-out: LogP) | logP [2]
COc1cccc([C@@]2(O)CCCC[C@@H]2CN(C)C)c1 [TRAMADOL] | 9.37 | – | –
COc1ccc2c(c1)[nH]c1c(C)nccc12 [HARMINE] | 7.5 | – | –
CN1CCC(=C2c3ccccc3CC(=O)c3sccc32)CC1 [KETOTIFEN] | 8.24 | 3.56 | –
NCCc1cc(O)c(O)cc1O [OXIDOPAMINE] | 10.3 | – | –
CN(Cc1cc(Br)cc(Br)c1N)C1CCCCC1 [BROMHEXINE] | 8.5 | – | –
CN1CCC(=C2c3ccccc3C=Cc3ccccc32)CC1 [CYPROHEPTADINE] | 8.87 | – | –
N#Cc1ccc2c(c1)N(CCCN1CCC(O)CC1)c1ccccc1S2 [PERICIAZINE] | 8.76 | – | –
C[C@H]1[C@H]2Cc3ccc(O)cc3[C@]1(C)CCN2CC1CC1 [CYCLAZOCINE] | 9.38 | – | 3.31
CCCCOc1cc(C(=O)NCCN(CC)CC)c2ccccc2n1 [DIBUCAINE] | 8.85 | – | –
CC(C)(C)c1ccc(C(O)CCCN2CCC(C(O)(c3ccccc3)c3ccccc3)CC2)cc1 (stereo not given) [TERFENADINE] | 8.6 | – | –
CN(C)CC/C=C1\c2ccccc2COc2ccccc21 [DOXEPIN] | – | 4.01 | –
O[C@@](CCN1CCCCC1)(c1ccccc1)C1CCCCC1 [TRIHEXYPHENIDYL] | 8.7 | – | –
Cc1c(-c2ccccc2)oc2c(C(=O)OCCN3CCCCC3)cccc2c1=O [FLAVOXATE] | 7.3 | – | –
CC12CC3CC(C)(C1)CC(N)(C3)C2 [MEMANTINE] | 10.4 | – | –
Cc1ccc(C(=CCN2CCCC2)c2ccccn2)cc1 [TRIPROLIDINE] | 9.69 | 3.47 | –
CCN(CC)CCNC(=O)c1cc(Br)c(N)cc1OC [BROMOPRIDE] | 9.35 | – | –
O=c1[nH]c2ccccc2n1CCCN1CCC(n2c(=O)[nH]c3cc(Cl)ccc32)CC1 [DOMPERIDONE] | – | 4.05 | –
CCOC(=O)c1cncn1[C@H](C)c1ccccc1 [ETOMIDATE] | 4.5 | 3.05 | –
O=C(CCCN1CCC(O)(c2ccc(Cl)cc2)CC1)c1ccc(F)cc1 [HALOPERIDOL] | – | 3.23 | –
CCCCNc1ccc(C(=O)OCCN(C)C)cc1 [TETRACAINE] | 8.39 | 3.73 | –
CN1[C@@H]2CC[C@H]1C[C@@H](OC(c1ccccc1)c1ccccc1)C2 [BENZTROPINE] | 10 | – | –
O=c1[nH]c2ccccc2n1C1CCN(CCCC(c2ccc(F)cc2)c2ccc(F)cc2)CC1 [PIMOZIDE] | 8.63 | – | –
NC(=O)C1(N2CCCCC2)CCN(CCCC(=O)c2ccc(F)cc2)CC1 [PIPAMPERONE] | 8.28 | – | –
CC(CN(C)C)CN1c2ccccc2Sc2ccccc21 (stereo not given) [METHYLPROMAZINE] | 9.11 | 4.81 | –
CN(C)CC/C=C1/c2ccccc2Sc2ccc(Cl)cc21 [CHLORPROTHIXENE] | 8.84 | 5.18 | –

SMILES | pKa [1] | logP ([2]; read-out: LogP) | logP [2]
CCN1CCCC1CNC(=O)c1cc(S(N)(=O)=O)ccc1OC (stereo not given) [SULPIRIDE] | – | 0.42 | –
COc1ccc(CN(CCN(C)C)c2ccccn2)cc1 [PYRILAMINE] | 8.92 | – | –
COc1ccc(Cc2nccc3cc(OC)c(OC)cc23)cc1OC [PAPAVERINE] | 6.25 | 2.93 | –
CN(C)CCCN1c2ccccc2Sc2ccccc21 [PROMAZINE] | 9.34 | – | –
c1ccc(CN(CC2=NCCN2)c2ccccc2)cc1 [ANTAZOLINE] | 10.1 | 4.24 | –
COC(=O)[C@H]1[C@H]2C[C@@H]3c4[nH]c5cc(OC)ccc5c4CCN3C[C@H]2C[C@@H](OC(=O)c2cc(OC)c(OC)c(OC)c2)[C@@H]1OC [RESERPINE] | 6.6 | 3.72 | –
COc1cc(N)c(Cl)cc1C(=O)NC1CCN(CCCOc2ccc(F)cc2)CC1OC (stereo not given) [CISAPRIDE] | 7.9 | – | –
CN1CCN(C2=Nc3cc(Cl)ccc3Nc3ccccc32)CC1 [CLOZAPINE] | – | 3.42 | –
Nc1ncn([C@@H]2O[C@H](CO)[C@@H](O)[C@H]2O)c(=O)n1 [AZACITIDINE] | – | -2.17 | –
CN1CCC(OC(c2ccccc2)c2ccccc2)CC1 | 8.9 | – | –
CC(NCCC(c1ccccc1)c1ccccc1)c1ccccc1 (stereo not given) [FENDILINE] | 9.04 | 4.89 | –
COc1cc(N)c(Cl)cc1C(=O)NC1CCN(Cc2ccccc2)CC1 [CLEBOPRIDE] | 8.59 | 2.72 | –
Fc1ccc(C(c2ccc(F)cc2)N2CCN(C/C=C/c3ccccc3)CC2)cc1 [FLUNARIZINE] | 7.71 | 6.42 | –
CNCCCC12CCC(c3ccccc31)c1ccccc12 [MAPROTILINE] | – | 4.5 | –
COc1ccc2c(c1OC)C(=O)O[C@@H]2[C@H]1c2c(cc3c(c2OC)OCO3)CCN1C [NOSCAPINE] | 6.2 | – | –
COc1ccc(CCN2CCC(Nc3nc4ccccc4n3Cc3ccc(F)cc3)CC2)cc1 [ASTEMIZOLE] | 8.5 | 5.48 | –
Cc1nc2sccn2c(=O)c1CCN1CCC(=C(c2ccc(F)cc2)c2ccc(F)cc2)CC1 [RITANSERIN] | 8.2 | – | –
Cc1ccccc1C(OCCN(C)C)c1ccccc1 (stereo not given) [ORPHENADRINE] | 8.4 | – | –
O=C1NCN(c2ccccc2)C12CCN(CCCC(c1ccc(F)cc1)c1ccc(F)cc1)CC2 | 8.66 | 5.83 | –
CN[C@H]1CC[C@@H](c2ccc(Cl)c(Cl)c2)c2ccccc21 (single isomer, unassigned) [SERTRALINE] | 9.16 | 4.3 | –
C(=C\c1ccccc1)/CN1CCN(C(c2ccccc2)c2ccccc2)CC1 [CINNARIZINE] | 7.47 | – | –
CNC1(C)C2CCC(C2)C1(C)C (stereo not given) [MECAMYLAMINE] | 11.2 | – | –
COCC(=O)O[C@]1(CCN(C)CCCc2nc3ccccc3[nH]2)CCc2cc(F)ccc2[C@@H]1C(C)C [MIBEFRADIL] | – | – | 3.86
CN(C)CCCN1c2ccccc2Sc2ccc(Cl)cc21 [CHLORPROMAZINE] | – | 5.19 | –
